Reference: patent US20020137929A1, “1 - (3-heterocyclylphenyl) isothiourea, -isourea, -guanidine and -amidine herbicidal agents” (Intellectual Property Department, BASF Aktiengesellschaft, priority 1998, published 2002)

Columns and labels:
GALAP (Galium) = experiment: Postemergence herbicidal evaluation; format: in vivo, Galium aparine; conditions: postemergence
How it was run: (§1)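 Herbicidal effect was judged by eye on a 0–9 scale covering stand, vigor, deformity, size and chlorosis, compared with controls, four to five weeks after seedlings about two weeks old were sprayed (40 psi, ~0.0156–0.500 kg/ha).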

[1] = tested on: CHEAL (Lambsquarters, Common); experiment: Preemergence herbicidal evaluation; format: in vivo, Chenopodium album; conditions: rated 4-5 weeks after treatment, rating scale 0-9
How it was run: (§2)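 Steps: mix seeds into potting soil; plant atop ~1 inch soil; spray compound in aqueous acetone (~0.0156-0.500 kg/ha equivalent); maintain in greenhouse with watering; rate visually 0-9 versus control at 4-5 weeks.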

CYPSE (Flatsedge) = experiment: Preemergence weed control under flooded paddy conditions; format: in vivo, Cyperus serotinus; conditions: rated 3-4 weeks after treatment
How it was run: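 Silt loam, seeds in top 0.5 cm; flood held 1.5-3 cm; test cpd as acetone/water 50/50 into flood water, ~0.0313-0.500 kg/ha a.i.; greenhouse 3-4 wk; visual 0-9 score vs control.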

AMBEL (Ragweed, Common) = experiment: Preemergence herbicidal evaluation; format: in vivo, Ambrosia artemisifolia; conditions: rated 4-5 weeks after treatment, rating scale 0-9
How it was run: as §2

[2] = tested on: TRZAWR (Wheat, Winter, cv Riband); experiment: Preemergence herbicidal evaluation; format: in vivo, Triticum aestivum; conditions: rated 4-5 weeks after treatment, rating scale 0-9
How it was run: as §2

[3] = tested on: IPOHE (Morningglory, Ivyleaf); experiment: Preemergence herbicidal evaluation; format: in vivo, Ipomoea hederacea; conditions: rated 4-5 weeks after treatment, rating scale 0-9
How it was run: as §2

ZEAMX (Corn, Field) [4] = experiment: Preemergence herbicidal evaluation; format: in vivo, Zea mays; conditions: rated 4-5 weeks after treatment, rating scale 0-9
How it was run: as §2

ZEAMX (Corn, Field) [5] = experiment: Postemergence herbicidal evaluation; format: in vivo, Zea mays; conditions: postemergence
How it was run: as §1

[6] = tested on: ECHORC (Watergrass (Calif.)); experiment: Preemergence weed control under flooded paddy conditions; format: in vivo, Echinochloa oryzoides; conditions: rated 3-4 weeks after treatment
How it was run: (§3)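 Ratings on a 0-9 visual scale cover stand, vigor, malformation, size, chlorosis and overall appearance relative to a control, taken three to four weeks post-treatment. Application was into flood water over freshly sown silt loam at roughly 0.0313 to 0.500 kg/ha.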

ORYSAT (Rice, Tebonnet) = experiment: Preemergence herbicidal evaluation; format: in vivo, Oryza sativa, (L.) Tebonnet; conditions: rated 4-5 weeks after treatment, rating scale 0-9
How it was run: as §2

CYPIR (Rice Flatsedge) = experiment: Preemergence weed control under flooded paddy conditions; format: in vivo, Cyperus iria; conditions: rated 3-4 weeks after treatment
How it was run: as §3

CASOB (Sicklepod) = experiment: Postemergence herbicidal evaluation; format: in vivo, Cassia obtusifolia; conditions: postemergence
How it was run: as §1

SMILES: Cn1c(C(F)(F)F)cc(=O)n(-c2cc(N=C3SCC(=O)N3Cc3ccccc3Cl)c(Cl)cc2F)c1=O [Compound 143]
- herbicidal rating GALAP (GALAP (Galium); rate 0.0156 kg/ha): 0.0
- herbicidal rating GALAP (GALAP (Galium); rate 0.0313 kg/ha): 1.0
- herbicidal rating GALAP (GALAP (Galium); rate 0.0625 kg/ha): 3.0
- Preemergence herbicidal rating CHEAL ([1]; rate 0.0313 kg/ha): 7.0
- Preemergence herbicidal rating CHEAL ([1]; rate 0.0625 kg/ha): 7.0
- Preemergence herbicidal rating CHEAL ([1]; rate 0.1250 kg/ha): 9.0
- Preemergence herbicidal rating CHEAL ([1]; rate 0.2500 kg/ha): 9.0
- herbicidal effect rating, CYPSE (CYPSE (Flatsedge); 0.0313 kg/ha): 0.0
- herbicidal effect rating, CYPSE (CYPSE (Flatsedge); 0.0625 kg/ha): 0.0
- herbicidal effect rating, CYPSE (CYPSE (Flatsedge); 0.1250 kg/ha): 0.0
- herbicidal effect rating, CYPSE (CYPSE (Flatsedge); 0.2500 kg/ha): 0.0
- Preemergence herbicidal rating AMBEL (AMBEL (Ragweed, Common); rate 0.0313 kg/ha): 0.0
- Preemergence herbicidal rating AMBEL (AMBEL (Ragweed, Common); rate 0.0625 kg/ha): 0.0
- Preemergence herbicidal rating AMBEL (AMBEL (Ragweed, Common); rate 0.1250 kg/ha): 2.0
- Preemergence herbicidal rating AMBEL (AMBEL (Ragweed, Common); rate 0.2500 kg/ha): 3.0
- Preemergence herbicidal rating TRZAWR ([2]; rate 0.0313 kg/ha): 0.0
- Preemergence herbicidal rating TRZAWR ([2]; rate 0.0625 kg/ha): 0.0
- Preemergence herbicidal rating TRZAWR ([2]; rate 0.1250 kg/ha): 0.0
- Preemergence herbicidal rating TRZAWR ([2]; rate 0.2500 kg/ha): 1.0
- Preemergence herbicidal rating IPOHE ([3]; rate 0.0313 kg/ha): 0.0
- Preemergence herbicidal rating IPOHE ([3]; rate 0.0625 kg/ha): 0.0
- Preemergence herbicidal rating IPOHE ([3]; rate 0.1250 kg/ha): 1.0
- Preemergence herbicidal rating IPOHE ([3]; rate 0.2500 kg/ha): 3.0
- Preemergence herbicidal rating ZEAMX (ZEAMX (Corn, Field) [4]; rate 0.0313 kg/ha): 0.0
- Preemergence herbicidal rating ZEAMX (ZEAMX (Corn, Field) [4]; rate 0.0625 kg/ha): 0.0
- Preemergence herbicidal rating ZEAMX (ZEAMX (Corn, Field) [4]; rate 0.1250 kg/ha): 0.0
- Preemergence herbicidal rating ZEAMX (ZEAMX (Corn, Field) [4]; rate 0.2500 kg/ha): 0.0
- herbicidal rating ZEAMX (ZEAMX (Corn, Field) [5]; rate 0.0156 kg/ha): 4.0
- herbicidal rating ZEAMX (ZEAMX (Corn, Field) [5]; rate 0.0313 kg/ha): 4.0
- herbicidal rating ZEAMX (ZEAMX (Corn, Field) [5]; rate 0.0625 kg/ha): 4.0
- herbicidal effect rating, ECHORC ([6]; 0.0313 kg/ha): 5.0
- herbicidal effect rating, ECHORC ([6]; 0.0625 kg/ha): 7.0
- herbicidal effect rating, ECHORC ([6]; 0.1250 kg/ha): 9.0
- herbicidal effect rating, ECHORC ([6]; 0.2500 kg/ha): 9.0
- Preemergence herbicidal rating ORYSAT (ORYSAT (Rice, Tebonnet); rate 0.0313 kg/ha): 0.0
- Preemergence herbicidal rating ORYSAT (ORYSAT (Rice, Tebonnet); rate 0.0625 kg/ha): 0.0
- Preemergence herbicidal rating ORYSAT (ORYSAT (Rice, Tebonnet); rate 0.1250 kg/ha): 0.0
- Preemergence herbicidal rating ORYSAT (ORYSAT (Rice, Tebonnet); rate 0.2500 kg/ha): 1.0
- herbicidal effect rating, CYPIR (CYPIR (Rice Flatsedge); 0.0313 kg/ha): 0.0
- herbicidal effect rating, CYPIR (CYPIR (Rice Flatsedge); 0.0625 kg/ha): 3.0
- herbicidal effect rating, CYPIR (CYPIR (Rice Flatsedge); 0.1250 kg/ha): 4.0
- herbicidal effect rating, CYPIR (CYPIR (Rice Flatsedge); 0.2500 kg/ha): 4.0
- herbicidal rating CASOB (CASOB (Sicklepod); rate 0.0156 kg/ha): 0.0
- herbicidal rating CASOB (CASOB (Sicklepod); rate 0.0313 kg/ha): 1.0
- herbicidal rating CASOB (CASOB (Sicklepod); rate 0.0625 kg/ha): 3.0

SMILES: Cn1c(C(F)(F)F)cc(=O)n(-c2cc(N=C3SCC(=O)N3Cc3ccc(Cl)cc3)c(Cl)cc2F)c1=O [Compound 145, 3-{4-Chloro-5-{[3-(p-chlorobenzyl)-4-oxo-2-thiazolidinylidene]amino}-2-fluorophenyl}-1-methyl-6-(trifluoromethyl)-2,4(1H,3H)-pyrimidinedione]
- herbicidal rating GALAP (GALAP (Galium); rate 0.0156 kg/ha): 1.0
- herbicidal rating GALAP (GALAP (Galium); rate 0.0313 kg/ha): 4.0
- herbicidal rating GALAP (GALAP (Galium); rate 0.0625 kg/ha): 7.0
- Preemergence herbicidal rating CHEAL ([1]; rate 0.0156 kg/ha): 7.0
- Preemergence herbicidal rating CHEAL ([1]; rate 0.0313 kg/ha): 9.0
- Preemergence herbicidal rating CHEAL ([1]; rate 0.0625 kg/ha): 7.0
- Preemergence herbicidal rating CHEAL ([1]; rate 0.1250 kg/ha): 9.0
- Preemergence herbicidal rating CHEAL ([1]; rate 0.2500 kg/ha): 9.0
- herbicidal effect rating, CYPSE (CYPSE (Flatsedge); 0.1250 kg/ha): 9.0
- herbicidal effect rating, CYPSE (CYPSE (Flatsedge); 0.2500 kg/ha): 9.0
- Preemergence herbicidal rating AMBEL (AMBEL (Ragweed, Common); rate 0.0156 kg/ha): 0.0
- Preemergence herbicidal rating AMBEL (AMBEL (Ragweed, Common); rate 0.0313 kg/ha): 0.0
- Preemergence herbicidal rating AMBEL (AMBEL (Ragweed, Common); rate 0.0625 kg/ha): 2.0
- Preemergence herbicidal rating AMBEL (AMBEL (Ragweed, Common); rate 0.1250 kg/ha): 5.0
- Preemergence herbicidal rating AMBEL (AMBEL (Ragweed, Common); rate 0.2500 kg/ha): 7.0
- Preemergence herbicidal rating TRZAWR ([2]; rate 0.0156 kg/ha): 0.0
- Preemergence herbicidal rating TRZAWR ([2]; rate 0.0313 kg/ha): 1.0
- Preemergence herbicidal rating TRZAWR ([2]; rate 0.0625 kg/ha): 1.0
- Preemergence herbicidal rating TRZAWR ([2]; rate 0.1250 kg/ha): 0.0
- Preemergence herbicidal rating TRZAWR ([2]; rate 0.2500 kg/ha): 1.0
- Preemergence herbicidal rating IPOHE ([3]; rate 0.0156 kg/ha): 0.0
- Preemergence herbicidal rating IPOHE ([3]; rate 0.0313 kg/ha): 0.0
- Preemergence herbicidal rating IPOHE ([3]; rate 0.0625 kg/ha): 0.0
- Preemergence herbicidal rating IPOHE ([3]; rate 0.1250 kg/ha): 7.0
- Preemergence herbicidal rating IPOHE ([3]; rate 0.2500 kg/ha): 5.0
- Preemergence herbicidal rating ZEAMX (ZEAMX (Corn, Field) [4]; rate 0.0156 kg/ha): 0.0
- Preemergence herbicidal rating ZEAMX (ZEAMX (Corn, Field) [4]; rate 0.0313 kg/ha): 0.0
- Preemergence herbicidal rating ZEAMX (ZEAMX (Corn, Field) [4]; rate 0.0625 kg/ha): 0.0
- Preemergence herbicidal rating ZEAMX (ZEAMX (Corn, Field) [4]; rate 0.1250 kg/ha): 1.0
- Preemergence herbicidal rating ZEAMX (ZEAMX (Corn, Field) [4]; rate 0.2500 kg/ha): 2.0
- herbicidal rating ZEAMX (ZEAMX (Corn, Field) [5]; rate 0.0156 kg/ha): 4.0
- herbicidal rating ZEAMX (ZEAMX (Corn, Field) [5]; rate 0.0313 kg/ha): 4.0
- herbicidal rating ZEAMX (ZEAMX (Corn, Field) [5]; rate 0.0625 kg/ha): 5.0
- herbicidal effect rating, ECHORC ([6]; 0.0313 kg/ha): 6.0
- herbicidal effect rating, ECHORC ([6]; 0.0625 kg/ha): 6.0
- herbicidal effect rating, ECHORC ([6]; 0.1250 kg/ha): 7.0
- herbicidal effect rating, ECHORC ([6]; 0.2500 kg/ha): 7.0
- Preemergence herbicidal rating ORYSAT (ORYSAT (Rice, Tebonnet); rate 0.0156 kg/ha): 1.0
- Preemergence herbicidal rating ORYSAT (ORYSAT (Rice, Tebonnet); rate 0.0313 kg/ha): 1.0
- Preemergence herbicidal rating ORYSAT (ORYSAT (Rice, Tebonnet); rate 0.0625 kg/ha): 2.0
- Preemergence herbicidal rating ORYSAT (ORYSAT (Rice, Tebonnet); rate 0.1250 kg/ha): 3.0
- Preemergence herbicidal rating ORYSAT (ORYSAT (Rice, Tebonnet); rate 0.2500 kg/ha): 1.0
- herbicidal effect rating, CYPIR (CYPIR (Rice Flatsedge); 0.0313 kg/ha): 4.0
- herbicidal effect rating, CYPIR (CYPIR (Rice Flatsedge); 0.0625 kg/ha): 5.0
- herbicidal effect rating, CYPIR (CYPIR (Rice Flatsedge); 0.1250 kg/ha): 7.0
- herbicidal effect rating, CYPIR (CYPIR (Rice Flatsedge); 0.2500 kg/ha): 9.0
- herbicidal rating CASOB (CASOB (Sicklepod); rate 0.0156 kg/ha): 1.0
- herbicidal rating CASOB (CASOB (Sicklepod); rate 0.0313 kg/ha): 2.0
- herbicidal rating CASOB (CASOB (Sicklepod); rate 0.0625 kg/ha): 5.0
